The record followed here is patent US20100227853A1, “INHIBITORS OF CYCLIC AMP PHOSPHODIESTERASES” (Trustees of Boston College, priority 2008, published 2010).

One assay deals with PDE4D (Homo sapiens, UniProt Q08499). Description: in vitro enzyme assay PDE4D (Table 7). Conditions: 2 micromolar compound; read-out: percent of PDE activity present, PDE4D. The class given is biochemical.
A further assay has as its target PDE4B2 (Homo sapiens, UniProt Q07343). Description: in vitro enzyme assay, E. coli expressed and purified PDE4B2. Also on record: targets used in the assays are full-length proteins (as opposed to simply the catalytic domain). The class given is biochemical. The conditions noted are these: read-out: IC50 (or AC200), PDE4B2.
Assay [1] concerns the target T1, PDE7A (Homo sapiens, UniProt Q13946). Description: in vitro enzyme assay PDE7A. The class given is biochemical. The arrangement: made in house; host or cells: E. coli. Conditions: for IC50: E. coli expressed and purified enzyme, read-out: IC50 (or AC200), PDE7A.
The next assay concerns the target PDE4B (Homo sapiens, UniProt Q07343). Briefly: in vitro enzyme assay PDE4B (Table 7). The class given is biochemical. Conditions: 2 micromolar compound; read-out: percent of PDE activity present, PDE4B.
For another assay, the target named is PDE4A (Homo sapiens, UniProt P27815). Description: in vitro enzyme assay PDE4A (Table 7). The format is biochemical. Conditions: 2 micromolar compound; read-out: percent of PDE activity present, PDE4A.
A further assay has as its target T2, PDE4D2-CAT (Homo sapiens, UniProt Q08499).
T2 construct: 86-413; made in house; host or cells: E. coli
Briefly: in vitro enzyme assay, catalytic fragment of PDE4D2 (residues 86-413). The class given is biochemical.

A further assay deals with U937 cells. Briefly: TNF alpha release by LPS-treated U937 cells. The format is cell-based. The conditions noted are these: for TNF alpha, % vehicle control: 10 uM cmpd, 0 uM BC30.
The target of assay [2] is T3, PDE7B (Homo sapiens, UniProt Q9NP56). Description: in vitro enzyme assay, PDE7B catalytic domain from E. coli, hydrolysis of cAMP to AMP. The class given is biochemical. The arrangement: The PDE7B catalytic domain was expressed in and purified from E. coli; made in house; host or cells: E. coli. The conditions noted are these: for IC50: AC200 = [Compound] that doubles PDE activity, read-out: IC50 (or AC200), PDE7B. As for the experimental part:
The PDE7B catalytic domain was expressed in and purified from E. coli and tested for activity in an in vitro enzyme assay, measuring the hydrolysis of cAMP to AMP. Four dilutions of the enzyme preparation were tested at various compound concentrations (X axis). The percent of cAMP hydrolyzed is plotted on the Y axis.
Target sequence in this assay (Q9NP56 97-420 limits assumed, species assumed): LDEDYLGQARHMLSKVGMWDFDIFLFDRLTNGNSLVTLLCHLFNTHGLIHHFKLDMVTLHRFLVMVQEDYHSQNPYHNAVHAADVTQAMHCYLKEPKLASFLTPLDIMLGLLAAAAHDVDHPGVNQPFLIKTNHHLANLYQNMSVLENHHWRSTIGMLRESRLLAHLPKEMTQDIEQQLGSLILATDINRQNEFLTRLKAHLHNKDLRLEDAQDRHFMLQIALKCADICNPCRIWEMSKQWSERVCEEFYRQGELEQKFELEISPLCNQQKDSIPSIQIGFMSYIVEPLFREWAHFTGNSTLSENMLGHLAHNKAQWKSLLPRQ

Assay [3] has as its system PDE4A, PDE4B, PDE4D, PDE7A, PDE7B, PDE8A, PDE3A. Description: Summary of PDE inhibitor profile.
The next assay relates to CLL. Description: CLL assay. The format is cell-based.
In assay [4] the target is T4, PDE7B (Rattus norvegicus, UniProt A0A0G2JXU0).
T4 construct: endogenous in cells; host or cells: rat pulmonary endothelial cells (extract)
T4 sequence (A0A0G2JXU0 1-446): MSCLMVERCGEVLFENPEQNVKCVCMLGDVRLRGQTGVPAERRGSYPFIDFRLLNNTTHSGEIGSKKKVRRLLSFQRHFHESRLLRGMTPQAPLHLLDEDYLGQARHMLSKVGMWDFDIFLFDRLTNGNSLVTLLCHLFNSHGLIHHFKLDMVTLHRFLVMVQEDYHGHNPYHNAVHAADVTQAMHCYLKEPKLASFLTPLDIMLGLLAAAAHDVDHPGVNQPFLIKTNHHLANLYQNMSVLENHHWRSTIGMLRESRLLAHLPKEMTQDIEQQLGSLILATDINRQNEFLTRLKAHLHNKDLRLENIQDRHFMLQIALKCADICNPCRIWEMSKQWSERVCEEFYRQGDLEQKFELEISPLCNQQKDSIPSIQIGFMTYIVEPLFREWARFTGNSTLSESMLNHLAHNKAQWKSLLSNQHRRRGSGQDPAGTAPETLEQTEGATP
Briefly: in vitro enzyme assay of PDE7B activity in extracts from rat pulmonary endothelial cells. The format is biochemical. An excerpt:
FIG. 13 is the in vitro enzyme assays of PDE7B activity in extracts made from rat pulmonary endothelial cells.

The target of assay [5] is T3, PDE7B. Briefly: 5FOA growth assay in fission yeast strain expressing PDE7B. The class given is cell-based. Also on record: targets used in the assays are full-length proteins (as opposed to simply the catalytic domain); expressed in transfected cells; host or cells: Schizosaccharomyces pombe. As for the experimental part:
(§1) PDE inhibition allows growth in 5FOA medium as measured by optical density after 48 hours incubation at 30° C. Compound BC12 and six structural analogs were tested for growth stimulation.
(§2) Cells were pregrown in EMM medium [MP Biomedicals (Solon, Ohio), 3% glucose, filter-sterilized to avoid carmelization, which would introduce variability into the optical density of the medium] containing from 0 mM to 2.5 mM cAMP (or either 0.5 mM or 1.0 mM cGMP). This was to repress expression of the fbp1-ura4 reporter prior to exposure of cells to 5FOA medium. Cells were grown at 30° C. to exponential phase (approximately 10^7 cells/ml). Cells were collected by centrifugation and resuspended in 5FOA medium, and 25 μl were transferred to 384-well microtiter dishes (untreated, with flat clear bottoms) that had been pre-filled with 25 μl 5FOA medium and pre-pinned with 100 nl of compounds (stock solutions were generally 10 mM). Starting cell concentrations ranged from 0.5×10^5 to 4×10^5 cells/ml depending on the screening strain. […] Other positive control dishes contained 5 mM cAMP in the 5FOA medium for PDEs that lack appropriate control compounds. Cultures were grown for 48 hours at 30° C., sealed in an airtight container with moist paper towels to prevent evaporation. Optical densities (OD600) of cultures were measured using a microplate reader. Bioinformatic analysis of the results to determine composite Z scores was performed as previously described (1, 3).
Target sequence in this assay (Q9NP56 whole entry, species assumed, the tested form may be a part): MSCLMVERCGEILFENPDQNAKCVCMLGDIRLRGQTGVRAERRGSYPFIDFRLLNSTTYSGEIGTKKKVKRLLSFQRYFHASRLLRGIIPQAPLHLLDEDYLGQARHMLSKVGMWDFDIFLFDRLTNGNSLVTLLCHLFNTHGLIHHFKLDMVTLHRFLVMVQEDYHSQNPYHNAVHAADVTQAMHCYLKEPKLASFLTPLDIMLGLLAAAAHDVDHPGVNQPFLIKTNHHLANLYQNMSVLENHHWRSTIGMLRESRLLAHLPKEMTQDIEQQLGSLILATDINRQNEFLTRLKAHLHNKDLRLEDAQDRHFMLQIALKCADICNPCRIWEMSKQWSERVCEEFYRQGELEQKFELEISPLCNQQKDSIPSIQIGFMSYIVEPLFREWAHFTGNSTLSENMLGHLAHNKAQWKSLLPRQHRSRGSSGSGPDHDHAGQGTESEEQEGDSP

Assay [6] concerns the target T1, PDE7A. Briefly: 5FOA growth assay in fission yeast strain expressing PDE7A. The format is cell-based. The arrangement: targets used in the assays are full-length proteins (as opposed to simply the catalytic domain); expressed in transfected cells; host or cells: Schizosaccharomyces pombe, PDE gene integrated in place of cgs2. As for the experimental part:
as §1, §2

The next assay relates to Lymphoma cells. Briefly: in vitro assay on lymphoma cells (24 hours, Hoechst stain, fsc/ssc). The class given is cell-based. As for the experimental part: FIGS. 6A and 6B show the in vitro assay of BC54 action. Lymphoma cells are treated with the drug for 24 hours, then stained with Hoechst dye. The cells form a clearly defined population on the fsc/ssc dot plot. Vincristine treatment was used as a positive control. […] BC54 is referred to in the figure as S54.

In the next assay the target is T5, PDE4D2-FL (Homo sapiens, UniProt Q08499).
T5 construct: 1-507; made in house; host or cells: E. coli
Briefly: in vitro enzyme assay, full-length PDE4D2 (residues 1-507). The format is biochemical. Conditions: read-out: IC50 (or AC200), PDE4D2-FL.

The mark [7] stands for this setting: optical density after 48 hours at 30° C.

T1 sequence (Q13946 whole entry): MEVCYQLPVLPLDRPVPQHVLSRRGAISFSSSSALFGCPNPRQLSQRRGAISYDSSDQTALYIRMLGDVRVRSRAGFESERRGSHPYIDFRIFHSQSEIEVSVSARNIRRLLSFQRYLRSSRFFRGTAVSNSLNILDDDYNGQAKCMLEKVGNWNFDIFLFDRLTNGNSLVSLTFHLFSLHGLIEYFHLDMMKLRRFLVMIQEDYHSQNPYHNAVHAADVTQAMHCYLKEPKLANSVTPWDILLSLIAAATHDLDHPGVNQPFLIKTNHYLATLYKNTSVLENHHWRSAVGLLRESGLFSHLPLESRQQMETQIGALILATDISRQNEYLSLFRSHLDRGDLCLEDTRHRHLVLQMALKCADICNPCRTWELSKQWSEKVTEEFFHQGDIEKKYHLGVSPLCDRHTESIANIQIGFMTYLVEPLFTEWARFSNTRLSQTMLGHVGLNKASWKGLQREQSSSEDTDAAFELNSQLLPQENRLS
T2 sequence (Q08499 388-715): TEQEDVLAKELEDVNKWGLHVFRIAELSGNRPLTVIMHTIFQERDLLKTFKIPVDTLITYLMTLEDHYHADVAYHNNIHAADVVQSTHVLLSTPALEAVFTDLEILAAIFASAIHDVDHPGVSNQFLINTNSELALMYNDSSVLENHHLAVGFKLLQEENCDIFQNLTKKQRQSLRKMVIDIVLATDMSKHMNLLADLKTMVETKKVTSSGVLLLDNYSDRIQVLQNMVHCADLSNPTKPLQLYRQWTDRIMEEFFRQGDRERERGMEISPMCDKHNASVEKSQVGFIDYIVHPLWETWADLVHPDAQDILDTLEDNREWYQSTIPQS
Chain of PDE4B (Q07343 whole entry, species assumed): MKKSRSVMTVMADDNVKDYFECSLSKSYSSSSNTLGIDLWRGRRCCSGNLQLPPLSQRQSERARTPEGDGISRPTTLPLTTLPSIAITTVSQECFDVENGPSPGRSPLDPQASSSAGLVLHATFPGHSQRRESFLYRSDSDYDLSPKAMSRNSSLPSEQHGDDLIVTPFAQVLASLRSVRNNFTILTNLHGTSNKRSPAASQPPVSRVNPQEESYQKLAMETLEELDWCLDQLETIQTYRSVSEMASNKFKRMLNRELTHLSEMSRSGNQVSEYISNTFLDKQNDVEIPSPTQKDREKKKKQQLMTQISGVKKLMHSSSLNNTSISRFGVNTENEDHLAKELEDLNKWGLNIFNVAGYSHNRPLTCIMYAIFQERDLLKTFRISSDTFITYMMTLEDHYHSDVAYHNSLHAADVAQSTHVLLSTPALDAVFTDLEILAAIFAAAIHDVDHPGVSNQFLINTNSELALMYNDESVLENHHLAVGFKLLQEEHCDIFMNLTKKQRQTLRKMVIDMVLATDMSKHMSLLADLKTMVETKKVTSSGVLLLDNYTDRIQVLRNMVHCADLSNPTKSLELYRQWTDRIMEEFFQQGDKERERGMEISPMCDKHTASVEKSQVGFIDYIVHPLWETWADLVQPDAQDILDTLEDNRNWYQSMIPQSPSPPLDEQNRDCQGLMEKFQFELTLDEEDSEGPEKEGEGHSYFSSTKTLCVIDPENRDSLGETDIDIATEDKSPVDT
T5 sequence (Q08499 303-809): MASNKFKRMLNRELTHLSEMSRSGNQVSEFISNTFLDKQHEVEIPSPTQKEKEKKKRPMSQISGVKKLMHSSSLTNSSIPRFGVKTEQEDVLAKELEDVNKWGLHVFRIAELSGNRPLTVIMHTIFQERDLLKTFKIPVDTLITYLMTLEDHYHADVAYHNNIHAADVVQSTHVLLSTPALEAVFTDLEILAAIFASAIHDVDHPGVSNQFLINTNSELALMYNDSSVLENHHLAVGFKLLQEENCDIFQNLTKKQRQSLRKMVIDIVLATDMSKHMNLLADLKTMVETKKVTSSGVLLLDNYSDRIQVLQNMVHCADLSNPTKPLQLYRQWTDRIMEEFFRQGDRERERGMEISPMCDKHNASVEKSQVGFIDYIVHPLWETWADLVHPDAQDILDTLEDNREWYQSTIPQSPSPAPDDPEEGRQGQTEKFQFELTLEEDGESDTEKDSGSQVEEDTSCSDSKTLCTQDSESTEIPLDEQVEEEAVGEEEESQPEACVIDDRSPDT
Chain of PDE4A (P27815 whole entry, species assumed): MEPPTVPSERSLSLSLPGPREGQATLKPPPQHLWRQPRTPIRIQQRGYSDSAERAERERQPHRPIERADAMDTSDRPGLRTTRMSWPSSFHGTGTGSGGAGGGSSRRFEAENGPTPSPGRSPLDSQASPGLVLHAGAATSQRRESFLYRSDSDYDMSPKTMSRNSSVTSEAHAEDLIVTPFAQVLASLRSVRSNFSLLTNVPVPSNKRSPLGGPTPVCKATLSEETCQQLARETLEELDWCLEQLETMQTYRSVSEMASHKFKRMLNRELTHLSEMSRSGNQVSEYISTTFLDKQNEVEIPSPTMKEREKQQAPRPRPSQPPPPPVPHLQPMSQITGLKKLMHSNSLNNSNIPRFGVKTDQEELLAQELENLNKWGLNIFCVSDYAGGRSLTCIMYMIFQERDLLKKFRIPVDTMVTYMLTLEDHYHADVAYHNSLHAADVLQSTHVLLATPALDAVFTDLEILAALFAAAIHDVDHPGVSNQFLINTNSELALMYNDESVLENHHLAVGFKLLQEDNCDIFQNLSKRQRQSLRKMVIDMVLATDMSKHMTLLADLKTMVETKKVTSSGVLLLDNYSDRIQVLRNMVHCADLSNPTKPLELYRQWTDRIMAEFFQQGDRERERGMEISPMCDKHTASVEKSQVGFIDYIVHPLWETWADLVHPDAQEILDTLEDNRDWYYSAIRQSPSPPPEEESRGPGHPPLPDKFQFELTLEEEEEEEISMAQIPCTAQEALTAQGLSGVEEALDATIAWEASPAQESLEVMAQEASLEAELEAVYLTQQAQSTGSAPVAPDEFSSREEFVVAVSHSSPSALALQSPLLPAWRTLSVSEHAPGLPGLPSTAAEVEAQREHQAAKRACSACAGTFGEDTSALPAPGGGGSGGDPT
Chain of PDE4B2 (Q07343 1-564 isoform Q07343-2, species assumed): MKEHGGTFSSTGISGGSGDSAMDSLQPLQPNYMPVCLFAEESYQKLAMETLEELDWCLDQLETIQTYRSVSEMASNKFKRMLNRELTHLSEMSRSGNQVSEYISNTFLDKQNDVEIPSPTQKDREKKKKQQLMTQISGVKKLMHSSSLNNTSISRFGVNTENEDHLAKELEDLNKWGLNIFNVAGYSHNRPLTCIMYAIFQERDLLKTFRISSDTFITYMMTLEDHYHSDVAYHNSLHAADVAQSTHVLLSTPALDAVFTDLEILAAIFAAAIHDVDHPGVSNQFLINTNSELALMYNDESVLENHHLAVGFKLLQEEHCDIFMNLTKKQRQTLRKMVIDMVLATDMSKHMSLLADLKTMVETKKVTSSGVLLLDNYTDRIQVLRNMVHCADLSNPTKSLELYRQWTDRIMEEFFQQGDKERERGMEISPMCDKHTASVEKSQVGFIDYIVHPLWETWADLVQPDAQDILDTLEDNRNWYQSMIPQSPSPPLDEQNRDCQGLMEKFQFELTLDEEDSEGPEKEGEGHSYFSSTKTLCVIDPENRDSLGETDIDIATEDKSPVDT

On to `Cc1c(C(=O)Nc2ccc(F)cc2F)sc2ncnc(N3CCC(C)CC3)c12` [Compound 58], for which the remaining activity at 2 µM stood at 31% at PDE4D; 68% on PDE7A [1] (2 micromolar compound, read-out: percent of PDE activity present, PDE7A); 16% at PDE4B; 31% at PDE4A. For the same compound, the IC50 was 1500 nM at PDE4B2; over 2000 nM at PDE7A [1]; under 2000 nM on PDE4D2-CAT (catalytic fragment, AC200 = [Compound] that doubles PDE activity, read-out: IC50 (or AC200), PDE4D2-CAT); over 2000 nM at PDE7B [2]. The TNF in the assay with U937 cells (3 HOURS) was 3345 pg/mL; in the assay on U937 cells (20 HOURS) it was 10030 pg/mL. In addition, the “TNF, % EtOH cntrl” value in the assay with U937 cells (3 HOURS) came to 69.2%; with U937 cells (20 HOURS), 73.3%. In addition, the “TNF alpha, % vehicle control” value in the assay on U937 cells (after 3 h.) came to 61.2%; with U937 cells (after 20 h.), 53.8%.

Consider `CN(C)c1ccc(/C=C/C=C2/C(=O)NC(=O)N(c3ccccc3)C2=O)cc1` [BC12], for which the “PDE inhibitor profile, in words” value in assay [3] was “PDE7 inhibitor that appears to activate PDE4D and PDE7B in vitro (not in vivo)”. In addition, the “activity in CLL assay, in words” value in the assay with CLL is “shows activity”. In addition, on PDE7B [4], the “inhibition of PDE7B from pulmonary endothelial cells, in words” value was “potent inhibitor”. This compound also came in with a Ki at PDE7B [4] (KI on PDE7 (PDE7B) from rat pulmonary endothelial cells, cell extracts) of about 200 nM. Moreover, at PDE7B [4] (PDE7B, rat pulmonary endothelial cell extracts), the “KI lower than that of BRL50481” value is “approximately 100 fold”. Also, at PDE7B [5] (setting [7]), the “5FOA growth response, PDE7B strain, in words” value was “most potent inhibitor, promoting growth at low micromolar concentrations”. Also, on PDE7A [6] (setting [7]), the “5FOA growth response, PDE7A strain, in words” value is listed as “most potent inhibitor, promoting growth at low micromolar concentrations”. The “PDE4D catalytic domain, 2 uM cpm” value on PDE4D2-CAT (2 uM compound) worked out at 3686 cpm. Besides, the activity at 2 µM at PDE4D2-CAT (2 micromolar compound, DMSO = 100, read-out: In vitro activation of PDE4D catalytic domain, % activity) was determined as 133%. Also, the “TNF alpha reduction, conclusion in words” value in the assay with U937 cells is given as “shows activity”. In addition, the “apoptosis of lymphoma cells, in words” value with Lymphoma cells was “apoptosis effect”. For the same compound, the “PDE7B, 2 uM cpm” value at PDE7B [2] (2 uM compound) came to 2388 cpm. Besides, the “effect on cAMP hydrolysis by PDE7B in vitro, in words” value at PDE7B [2] (E. coli-expressed catalytic domain) is given as “increases cAMP hydrolysis”.

On to `Cc1ccc([N+](=O)[O-])cc1S(=O)(=O)N(C)C` [BRL50481, reference compound], for which the results for the IC50 at PDE7A [1], at PDE4D2-FL and on PDE7B [2] were 200 nM, over 20000 nM and 18000 nM, respectively. Further, the EC50 is 42000 nM on PDE7B [5] (OD600 0.6, read-out: ED50 for 5FOA growth assays, PDE7B) and 1300 nM at PDE7A [6] (OD600 0.6, read-out: ED50 for 5FOA growth assays, PDE7A).
